Data reported in patent US9290451B2 (Hoffmann-La Roche Inc., priority 2011, dated 2016).

Key:
human CB1 receptors = human CB1 receptors (Homo sapiens (Human), UniProt P21554); assay: cAMP assay, CHO cells expressing human CB1 receptors; assay type: cell-based; conditions: CHO cells expressing human CB1, cAMP; read-out: human CB1 EC50
In short: (§1)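 CHO cells, KRB buffer + 1 mM IBMX, 30 min 30 °C preincubation; compound 30 min 30 °C; lysis + TR-FRET cAMP detection, 2 h RT; cAMP from standard curve (10 μM–0.13 nM); EC50.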

human CB2 receptors = human CB2 receptors (Homo sapiens (Human), UniProt P34972); assay: cAMP assay, CHO cells expressing human CB2 receptors; assay type: cell-based; conditions: CHO cells expressing human CB2, cAMP; read-out: human CB2 EC50
human CB2 receptors, sequence (P34972 whole entry): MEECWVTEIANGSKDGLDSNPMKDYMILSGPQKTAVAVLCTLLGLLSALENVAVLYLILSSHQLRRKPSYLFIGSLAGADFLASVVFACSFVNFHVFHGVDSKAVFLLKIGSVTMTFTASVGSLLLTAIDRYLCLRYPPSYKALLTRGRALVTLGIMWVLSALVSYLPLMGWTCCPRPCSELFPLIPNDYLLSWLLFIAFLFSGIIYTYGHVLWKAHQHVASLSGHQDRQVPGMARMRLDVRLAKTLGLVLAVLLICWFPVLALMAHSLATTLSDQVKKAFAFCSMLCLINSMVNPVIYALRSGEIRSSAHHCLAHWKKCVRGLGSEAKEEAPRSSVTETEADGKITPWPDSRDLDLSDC
In short: as §1

human CB1 receptors, sequence (P21554 whole entry): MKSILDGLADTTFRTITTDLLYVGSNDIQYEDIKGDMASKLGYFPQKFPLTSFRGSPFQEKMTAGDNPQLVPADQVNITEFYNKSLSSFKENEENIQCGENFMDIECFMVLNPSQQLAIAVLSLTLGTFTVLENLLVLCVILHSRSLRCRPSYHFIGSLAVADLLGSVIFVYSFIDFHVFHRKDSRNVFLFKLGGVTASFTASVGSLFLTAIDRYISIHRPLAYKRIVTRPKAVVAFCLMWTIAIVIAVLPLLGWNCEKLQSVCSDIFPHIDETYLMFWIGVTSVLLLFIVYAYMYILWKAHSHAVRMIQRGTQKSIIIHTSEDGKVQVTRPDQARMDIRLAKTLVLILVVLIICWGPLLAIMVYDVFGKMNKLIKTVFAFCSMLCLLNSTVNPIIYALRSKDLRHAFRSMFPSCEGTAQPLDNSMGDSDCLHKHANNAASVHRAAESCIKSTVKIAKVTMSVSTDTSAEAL

Compound	EC50 (human CB1 receptors)	EC50 (human CB2 receptors)
CC(C)C[C@H](NC(=O)c1ccc(N2CC(F)(F)C2)c(-c2cccc(Cl)c2)n1)C(N)=O [Example 140, 6-(3-Chloro-phenyl)-5-(3,3-difluoro-azetidin-1-yl)-pyridine-2-carboxylic acid ((S)-1-carbamoyl-3-methyl-butyl)-amide]	> 10000 nM	305 nM
O=C(NC1(C(F)(F)F)CC1)c1ccc(N2CC(F)(F)C2)c(OCC2CC2)n1 [Example 378, 6-Cyclopropylmethoxy-5-(3,3-difluoro-azetidin-1-yl)-pyridine-2-carboxylic acid (1-trifluoromethyl-cyclopropyl)-amide]	> 10000 nM	6.4 nM
CC(C)C[C@H](NC(=O)c1ccc(N2CC(F)(F)C2)c(OCC2CC2)n1)C(N)=O [Example 132, 6-Cyclopropylmethoxy-5-(3,3-difluoro-azetidin-1-yl)-pyridine-2-carboxylic acid ((S)-1-carbamoyl-3-methyl-butyl)-amide]	1130 nM	0.8 nM
CCC(CC)(NC(=O)c1ccc(C2CC2)c(OCC2CC2)n1)C(=O)NCCO [Example 356, 5-Cyclopropyl-6-cyclopropylmethoxy-pyridine-2-carboxylic acid [1-ethyl-1-(2-hydroxy-ethylcarbamoyl)-propyl]-amide]	> 10000 nM	5.2 nM
CC(C)(NC(=O)c1ccc(N2CCCC2=O)c(OCC2CC2)n1)c1ncco1 [Example 61, 6-Cyclopropylmethoxy-5-(2-oxo-pyrrolidin-1-yl)-pyridine-2-carboxylic acid (1-methyl-1-oxazol-2-yl-ethyl)-amide]	> 10000 nM	1480 nM
NC(=O)[C@@H](NC(=O)c1ccc(C2CC2)c(OCC2CC2)n1)c1ccccc1 [Example 172, (S)-N-(2-Amino-2-oxo-1-phenylethyl)-5-cyclopropyl-6-(cyclopropylmethoxy)picolinamide]	> 10000 nM	10.1 nM
C[C@@H](C#N)NC(=O)c1ccc(C2CC2)c(OCC2CC2)n1 [Example 246, 5-Cyclopropyl-6-cyclopropylmethoxy-pyridine-2-carboxylic acid ((−)-cyano-methyl-methyl)-amide]	2470 nM	215 nM
O=C(NN1CCCCC1)c1cccc(-c2cccc(Cl)c2)n1 [Example 11, 6-(3-Chloro-phenyl)-pyridine-2-carboxylic acid piperidin-1-ylamide]	> 10000 nM	63.6 nM
CC(C)(O)[C@H](CC1CC1)NC(=O)c1ccc(C2CC2)c(OCC2CC2)n1 [Example 139, 5-Cyclopropyl-6-cyclopropylmethoxy-pyridine-2-carboxylic acid ((S)-1-cyclopropylmethyl-2-hydroxy-2-methyl-propyl)-amide]	> 10000 nM	113 nM
COCCOc1nc(C(=O)N[C@@H](CC(C)C)C(N)=O)ccc1N1CC(F)(F)C1 [Example 158, 5-(3,3-Difluoro-azetidin-1-yl)-6-(2-methoxy-ethoxy)-pyridine-2-carboxylic acid ((S)-1-carbamoyl-3-methyl-butyl)-amide]	> 10000 nM	22.9 nM
CC(C)C[C@@H](CNc1ccc([N+](=O)[O-])c2nonc12)NC(=O)c1ccc(N2CCCC2)c(OCC2CC2)n1 [Example 344, 6-Cyclopropylmethoxy-5-pyrrolidin-1-yl-pyridine-2-carboxylic acid {(S)-3-methyl-1-[(7-nitro-benzo[1,2,5]oxadiazol-4-ylamino)-methyl]-butyl}-amide]	> 10000 nM	25.6 nM
Cc1nc(C(C)(C)NC(=O)c2ccc(C)c(-c3cccc(Cl)c3)n2)no1 [Example 51, 6-(3-Chloro-phenyl)-5-methyl-pyridine-2-carboxylic acid [1-methyl-1-(5-methyl-[1,2,4]oxadiazol-3-yl)-ethyl]-amide]	> 10000 nM	127 nM
Cc1nc([C@](C)(NC(=O)c2ccc(C3CC3)c(OCC3CC3)n2)C2CC2)no1 [Example 324]	> 10000 nM	4.1 nM
CCC(CC)(NC(=O)c1ccc(C2CC2)c(O[C@@H](CCO)C(F)(F)F)n1)C(=O)NC [Example 319, 5-Cyclopropyl-6-((S)-3-hydroxy-1-trifluoromethyl-propoxy)-pyridine-2-carboxylic acid (1-ethyl-1-methylcarbamoyl-propyl)-amide]	> 10000 nM	344 nM
Cc1nc(C(C)(C)NC(=O)c2ccc(N3CCC34COC4)c(OCC3CC3)n2)no1 [Example 235, 6-Cyclopropylmethoxy-5-(6-oxa-1-aza-spiro[3.3]hept-1-yl)-pyridine-2-carboxylic acid [1-methyl-1-(5-methyl-[1,2,4]oxadiazol-3-yl)-ethyl]-amide]	> 10000 nM	41.3 nM
COC(=O)C(C)(C)NC(=O)c1ccc(C2CCOCC2)c(OCC2CC2)n1 [Example 9, 2-{[6-Cyclopropylmethoxy-5-(tetrahydro-pyran-4-yl)-pyridine-2-carbonyl]-amino}-2-methyl-propionic acid methyl ester]	> 10000 nM	55.8 nM

Compound	EC50 (human CB1 receptors)	EC50 (human CB2 receptors)
CC1(COc2nc(C(=O)NC(C)(C)c3nccs3)ccc2Br)COC1 [Example 280, 5-Bromo-6-(3-methyl-oxetan-3-ylmethoxy)-pyridine-2-carboxylic acid (1-methyl-1-thiazol-2-yl-ethyl)-amide]	1490 nM	118 nM
CNC(=O)[C@H](CC(C)(C)C)NC(=O)c1ccc(C(F)(F)F)c(OCC2CC2)n1 [Example 228, 6-Cyclopropylmethoxy-5-trifluoromethyl-pyridine-2-carboxylic acid ((S)-3,3-dimethyl-1-methylcarbamoyl-butyl)-amide]	> 10000 nM	16.8 nM
O=C(NC1CCCCC1CO)c1cccc(C2CCCCC2)n1 (centres unmarked) [Example 122, 6-Cyclohexyl-pyridine-2-carboxylic acid (2-hydroxymethyl-cyclohexyl)-amide]	> 10000 nM	158 nM
CC(C)(C#N)NC(=O)c1ccc(C2CC2)c(OCC2CC2)n1 [Example 167, N-(2-Cyanopropan-2-yl)-5-cyclopropyl-6-(cyclopropylmethoxy)picolinamide]	> 10000 nM	206 nM
CCC(CC)(NC(=O)c1ccc(C2CC2)c(OCC2CCCO2)n1)C(=O)NC (centres unmarked) [Example 250, 5-Cyclopropyl-6-(tetrahydro-furan-2-ylmethoxy)-pyridine-2-carboxylic acid (1-ethyl-1-methylcarbamoyl-propyl)-amide]	> 10000 nM	9.5 nM
NC(=O)[C@H](CC1CC1)NC(=O)c1ccc(C2CC2)c(Cc2ccc(F)cc2)n1 [Example 326, 5-Cyclopropyl-6-(4-fluoro-benzyl)-pyridine-2-carboxylic acid ((S)-1-carbamoyl-2-cyclopropyl-ethyl)-amide]	59 nM	0.2 nM
CC1(COc2nc(C(=O)NC(C)(C)c3nccs3)ccc2N2CC(F)(F)C2)COC1 [Example 295, 5-(3,3-Difluoro-azetidin-1-yl)-6-(3-methyl-oxetan-3-ylmethoxy)-pyridine-2-carboxylic acid (1-methyl-1-thiazol-2-yl-ethyl)-amide]	> 10000 nM	259 nM
Cc1nc([C@@H](C)NC(=O)c2ccc(C3CC3)c(OCC3CC3)n2)no1 [Example 241, 5-Cyclopropyl-6-cyclopropylmethoxy-pyridine-2-carboxylic acid [(−)-1-(5-methyl-[1,2,4]oxadiazol-3-yl)-ethyl]-amide]	> 10000 nM	49.1 nM
CCC(CC)(NC(=O)c1ccc(N2CCCC2)c(OCC2CC2)n1)C(=O)O [Example 291, 2-[(6-Cyclopropylmethoxy-5-pyrrolidin-1-yl-pyridine-2-carbonyl)-amino]-2-ethyl-butyric acid]	> 10000 nM	413 nM
NC(=O)[C@H](CC1CC1)NC(=O)c1ccc(N2CCC(F)(F)C2)c(OCC2CC2)n1 [Example 112, 6-Cyclopropylmethoxy-5-(3,3-difluoro-pyrrolidin-1-yl)-pyridine-2-carboxylic acid ((S)-1-carbamoyl-2-cyclopropyl-ethyl)-amide]	> 10000 nM	15.4 nM
CNC(=O)[C@@H](NC(=O)c1ccc(C2CC2)c(OCC2CCCO2)n1)C(C)(C)C (stereo partly drawn) [Example 183, 5-Cyclopropyl-N-((S)-3,3-dimethyl-1-(methylamino)-1-oxobutan-2-yl)-6-((tetrahydrofuran-2-yl)methoxy)picolinamide]	102 nM	4 nM
O=C(N[C@H]1CCOC1=O)c1ccc(C2CC2)c(OCC2CC2)n1 [Example 362, 5-Cyclopropyl-6-cyclopropylmethoxy-pyridine-2-carboxylic acid ((S)-2-oxo-tetrahydro-furan-3-yl)-amide]	> 10000 nM	441 nM
Cc1nc(C(NC(=O)c2ccc(C(F)(F)F)c(OCC3CC3)n2)C2CC2)no1 (centres unmarked) [Example 229, 6-Cyclopropylmethoxy-5-trifluoromethyl-pyridine-2-carboxylic acid [cyclopropyl-(5-methyl-[1,2,4]oxadiazol-3-yl)-methyl]-amide]	> 10000 nM	52.4 nM
Cc1nc([C@H](CC2CC2)NC(=O)c2cccc(-c3cccc(F)c3)n2)no1 [Example 347, 6-(3-Fluoro-phenyl)-pyridine-2-carboxylic acid [(S)-2-cyclopropyl-1-(5-methyl-[1,2,4]oxadiazol-3-yl)-ethyl]-amide]	> 10000 nM	50 nM
CNC(=O)[C@H](CC(C)(C)C)NC(=O)c1ccc(C2CC2)c(S(=O)(=O)CC(C)C)n1 [Example 361, 5-Cyclopropyl-6-(2-methyl-propane-1-sulfonyl)-pyridine-2-carboxylic acid ((S)-3,3-dimethyl-1-methylcarbamoyl-butyl)-amide]	> 10000 nM	42.5 nM
